pEC50: −log10 of the molar value.
Assays:
[1] = molecular target: T1, GST tagged LXRbeta LBD (ligand binding domain) (Homo sapiens, UniProt P55055); assay: LanthaScreen TR-FRET Liver X Receptor Coactivator Assay, LXR beta-LBD; type: biochemical; conditions: relative to reference T0901317; for pEC50: Inflection Point (potency), co-activator recruitment, read-out: LXR beta IP; for Emax: activity at max dose (efficacy), read-out: LXR beta act @ max dose (%)
T1 construct: purchased Invitrogen pv4658.pps
T1 sequence (P55055 222-460 limits assumed): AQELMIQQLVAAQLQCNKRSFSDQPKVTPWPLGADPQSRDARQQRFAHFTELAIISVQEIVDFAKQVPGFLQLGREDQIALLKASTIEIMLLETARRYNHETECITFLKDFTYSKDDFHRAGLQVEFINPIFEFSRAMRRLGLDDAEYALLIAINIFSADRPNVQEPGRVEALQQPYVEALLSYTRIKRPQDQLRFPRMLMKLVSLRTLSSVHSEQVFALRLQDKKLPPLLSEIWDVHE
Procedure: (§1) Potency (Inflection Point, IP) and efficacy (Emax) are evaluated via compound-induced co-activator recruitment to glutathione-S-transferase (GST) tagged LXRbeta and LXRalpha LBD (ligand binding domain) proteins in relation to reference dual agonist compound T0901317 (N-(2,2,2-Trifluoroethyl)-N-[4-[2,2,2-trifluoro-1-hydroxy-1-(trifluoromethyl)ethyl] phenyl]benzenesulfonamide) using the LanthaScreen™ TR-FRET Liver X Receptor Coactivator Assays according to manufacturer's instructions (Invitrogen catalog number pv4658.pps and pv4655). While running the LanthaScreen™ TR-FRET Liver X Receptor Coactivator Assay, LXR alpha-LBD or LXR beta-LBD was added to ligand test compounds followed by addition of a mixture of a fluorescein-labelled coactivator peptide and terbium-conjugated anti-GST antibody. After an incubation period at room temperature, TR-FRET (time-resolved fluorescence resonance energy transfer) was measured using a filter-based instrument capable of TR-FRET, e.g. PerkinElmer Envision.

[2] = molecular target: T2, GST tagged LXRalpha LBD (ligand binding domain) (Homo sapiens, UniProt Q13133); assay: LanthaScreen TR-FRET Liver X Receptor Coactivator Assay, LXR alpha-LBD; type: biochemical; conditions: relative to reference T0901317; for pEC50: read-out: LXR alpha IP; for Emax: activity at max dose (efficacy), read-out: LXR alpha act @ max dose (%)
T2 construct: purchased Invitrogen pv4655
T2 sequence (Q13133 209-447 limits assumed): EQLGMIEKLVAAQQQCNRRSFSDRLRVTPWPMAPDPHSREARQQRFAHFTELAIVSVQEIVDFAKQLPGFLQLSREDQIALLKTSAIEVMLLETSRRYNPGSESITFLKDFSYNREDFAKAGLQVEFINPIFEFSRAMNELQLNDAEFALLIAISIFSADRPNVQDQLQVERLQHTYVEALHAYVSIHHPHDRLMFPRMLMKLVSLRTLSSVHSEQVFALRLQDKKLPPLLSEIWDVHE
Procedure: as §1

[3] = Inflection Point (potency), co-activator recruitment

Structure (SMILES) | pEC50 [1] | Emax [1] [%] | pEC50 [2, 3] | Emax [2] [%] | LXR alpha IP (nM) [2, 3]
CCN(CC)C(=O)c1ccc(N2CCC(C3CCN(C(=O)c4c(F)cccc4F)CC3)CC2)cc1Cl [Example E-14, 2-chloro-4-{1′-[(2,6-difluorophenyl)carbonyl]-4,4′-bipiperidin-1-yl}-N,N-diethylbenzamide] | 6.54 | 78 | 5.72 | 30 | 
CN(C)C(=O)c1ccc(N2CCC(C3CCN(C(=O)C(O)(c4ccccc4)C4CC4)CC3)CC2)cc1Cl (stereo not shown) [Example A-52, 2-chloro-4-{1′-[cyclopropyl(hydroxy)phenylacetyl]-4,4′-bipiperidin-1-yl}-N,N-dimethylbenzamide] | 6.77 | 96 | 5.69 | 22 | 
CN(C)C(=O)c1ccc(N2CCC(C3CCN(C(=O)C4(c5ccccc5)CCC4)CC3)CC2)cc1Cl [Example A-14, 2-chloro-N,N-dimethyl-4-{1′-[(1-phenylcyclobutyl)carbonyl]-4,4′-bipiperidin-1-yl}benzamide] | 7.44 | 114 | 5.81 | 38 | 
CN(CC1CC1(C)C)C(=O)c1ccc(N2CCC(C3CCN(C(=O)c4c(F)cccc4F)CC3)CC2)cc1Cl (stereo not shown) [Example E-15, 2-chloro-4-{1′-[(2,6-difluorophenyl)carbonyl]-4,4′-bipiperidin-1-yl}-N-[(2,2-dimethylcyclopropyl)methyl]-N-methylbenzamide] | 6.55 | 54 |  | 10 | NO IP
CC(C)[C@@](O)(C(=O)N1CCC(C2CCN(c3ccc(C(=O)N(C)C)c(Cl)c3)CC2)CC1)C(F)(F)F (single isomer, unassigned) [Example A-2] | 7.46 | 100 | 5.99 | 41 | 
CC(C)C(O)(C(=O)N1CCC(C2CCN(c3cc(Cl)c(C(=O)N(C)C)c(Cl)c3)CC2)CC1)C(F)(F)F (stereo not shown) [Example A-34, 2,6-dichloro-4-{1′-[2-hydroxy-3-methyl-2-(trifluoromethyl)butanoyl]-4,4′-bipiperidin-1-yl}-N,N-dimethylbenzamide] | 6.92 | 103 | 5.87 | 46 | 
CCN(C)C(=O)c1ccc(N2CCC(C3CCN(C(=O)[C@](O)(c4ccccc4)C(F)(F)F)CC3)CC2)cc1Cl [Example E-60, 2-chloro-N-ethyl-N-methyl-4-{1′-[(2R)-3,3,3-trifluoro-2-hydroxy-2-phenylpropanoyl]-4,4′-bipiperidin-1-yl}benzamide] | 7.00 | 114 | 5.73 | 34 | 
CCC1CCCN1C(=O)c1ccc(N2CCC(C3CCN(C(=O)[C@](O)(c4ccccc4)C(F)(F)F)CC3)CC2)cc1Cl (stereo partly drawn) [Example E-30, (2R)-3-(1′-{3-chloro-4-[(2-ethylpyrrolidin-1-yl)carbonyl]phenyl}-4,4′-bipiperidin-1-yl)-1,1,1-trifluoro-3-oxo-2-phenylpropan-2-ol] | 6.84 | 74 | 5.82 | 15 | 
CN(C)C(=O)c1ccc(N2CCC(C3CCN(C(=O)c4c(F)cccc4F)CC3)CC2)nc1Cl [Example B-8, 2-chloro-6-{1′-[(2,6-difluorophenyl)carbonyl]-4,4′-bipiperidin-1-yl}-N,N-dimethylpyridine-3-carboxamide] | 7.15 | 95 | 6.05 | 38 | 
COC(=O)[C@@H]1CCCN1C(=O)c1ccc(N2CCC(C3CCN(C(=O)[C@](O)(c4ccccc4)C(F)(F)F)CC3)CC2)cc1Cl [Example E-22, methyl 1-[(2-chloro-4-{1′-[(2R)-3,3,3-trifluoro-2-hydroxy-2-phenylpropanoyl]-4,4′-bipiperidin-1-yl}phenyl)carbonyl]prolinate] | 6.36 | 81 | 5.78 | 18 | 

— patent US20180305332A1, “Bispiperidinyl Derivatives as Liver X Receptor Beta Agonists, Compositions, and Their Use” (Merck Sharp & Dohme Corp., priority 2015, published 2018)
